Laboratory results: patent publication US20240365781A1, “SYNERGISTICALLY EFFECTIVE HERBICIDE COMPOSITION COMPRISING PELARGONIC ACID AND FLAZASULFURON” (Belchim Crop Protection NV, priority 2017, published 2024)

Assays:
Assay in all cases: post-emergence field trial under rows of vines, 150-200 L water/ha (Examples 6-9)
Assay type in all cases: in vivo
Veronica persicae = settings: flazasulfuron 40 g/ha
Description: (§1) The expected activity of a given combination of two or three herbicides can be calculated as follows according to a calculation method by Colby (cf. COLBY, S. R.: “Calculating synergistic and antagonistic responses of herbicide combinations”, • Weeds 15, pages 20-22, 1967): • If X=% damage by herbicide (A) at an application rate of m g/ha, • Y=% damage by herbicide (B) at an application rate of n g/ha, • E=the expected damage by herbicides (A) and (B) at application rates of m and n […] and, • then for a combination:
(§2) Individual compositions comprising pelargonic acid or flazasulfuron are compared with a herbicide composition according to the invention comprising pelargonic acid and flazasulfuron.
(§3) Herbicidal activity was determined by performing a post-emergence test. […] The corresponding mixture was in the form of a spray solution. Besides, spray solutions of individual compositions comprising pelargonic acid or flazasulfuron were used.
(§4) The spray solution was applied on plants of unwanted vegetation present on fields where perennial crops were grown.
(§5) After 5 to 88 days after application of the spray solution, the degree of damage to the unwanted vegetation is rated in % of plants of unwanted vegetation that were killed. Tests were performed on test fields (field trials).

Erigeron sumatrensis = settings: flazasulfuron 40 g/ha
Description: as §1, §2, §3, §4, §5

Digitaria sanguinalis = settings: flazasulfuron 40 g/ha
Description: as §1, §2, §3, §4, §5

Epilobium tetragonum = settings: flazasulfuron 40 g/ha
Description: as §1, §2, §3, §4, §5

Amaranthus retroflexus = settings: flazasulfuron 40 g/ha
Description: as §1, §2, §3, §4, §5

Geranium molle = settings: 15 d, flazasulfuron 40 g/ha
Description: as §1, §2, §3, §4, §5

[1] = system: Digitaria sanguinalis and Setaria pumila; settings: flazasulfuron 40 g/ha
Description: as §1, §2, §3, §4, §5

Convolvulus arvensis = settings: flazasulfuron 40 g/ha
Description: as §1, §2, §3, §4, §5

Senecio vulgaris = settings: flazasulfuron 40 g/ha
Description: as §1, §2, §3, §4, §5

Oxalis latifolia = settings: flazasulfuron 40 g/ha
Description: as §1, §2, §3, §4, §5

Sonchus oleracea = settings: flazasulfuron 40 g/ha
Description: as §1, §2, §3, §4, §5

[2] = 7 d, pelargonic acid 10880 g/ha
[3] = 14 d, pelargonic acid 5440 g/ha
[4] = 14 d, pelargonic acid 6800 g/ha
[5] = 14 d, pelargonic acid 8160 g/ha
[6] = 14 d, pelargonic acid 10880 g/ha
[7] = 27 d, pelargonic acid 5440 g/ha
[8] = 27 d, pelargonic acid 6800 g/ha
[9] = 27 d, pelargonic acid 8160 g/ha
[10] = 27 d, pelargonic acid 10880 g/ha
[11] = 56 d, pelargonic acid 5440 g/ha
[12] = 56 d, pelargonic acid 10880 g/ha
[13] = 56 d, pelargonic acid 6800 g/ha
[14] = 56 d, pelargonic acid 8160 g/ha
[15] = 31 d, pelargonic acid 5440 g/ha
[16] = 31 d, pelargonic acid 6800 g/ha
[17] = 31 d, pelargonic acid 8160 g/ha
[18] = 31 d, pelargonic acid 10880 g/ha
[19] = 58 d, pelargonic acid 5440 g/ha
[20] = 58 d, pelargonic acid 8160 g/ha
[21] = 58 d, pelargonic acid 10880 g/ha
[22] = 28 d, pelargonic acid 6800 g/ha
[23] = 28 d, pelargonic acid 8160 g/ha
[24] = 28 d, pelargonic acid 10880 g/ha
[25] = 65 d, pelargonic acid 5440 g/ha
[26] = 65 d, pelargonic acid 8160 g/ha
[27] = 65 d, pelargonic acid 10880 g/ha

In the case of `COc1cc(OC)nc(NC(=O)NS(=O)(=O)c2ncccc2C(F)(F)F)n1` [Flazasulfuron, 1-(4,6-dimethoxypyrimidin-2-yl)-3-(3-trifluoromethyl-2-pyridylsulfonyl)urea], the herbicidal effect (Veronica persicae; 7 d, pelargonic acid 5440 g/ha) was 43%, the herbicidal effect (Veronica persicae; 7 d, pelargonic acid 6800 g/ha) was 43% and the herbicidal effect (Veronica persicae; 7 d, pelargonic acid 8160 g/ha) was 43%. It also gave a herbicidal effect (Veronica persicae; [2]) of 43%, a herbicidal effect (Veronica persicae; [3]) of 50% and a herbicidal effect (Veronica persicae; [4]) of 50%. It also gave a herbicidal effect (Veronica persicae; [5]) of 50%, a herbicidal effect (Veronica persicae; [6]) of 50% and a herbicidal effect (Veronica persicae; [7]) of 24%. The herbicidal effect (Veronica persicae; [8]) was 24%, the herbicidal effect (Veronica persicae; [9]) was 24% and the herbicidal effect (Veronica persicae; [10]) was 24%. It also gave a herbicidal effect (Veronica persicae; [11]) of 0%, a herbicidal effect (Veronica persicae; [12]) of 0% and a herbicidal effect (Erigeron sumatrensis; 5 d, pelargonic acid 5440 g/ha) of 18%. It also gave a herbicidal effect (Erigeron sumatrensis; 5 d, pelargonic acid 8160 g/ha) of 18%, a herbicidal effect (Erigeron sumatrensis; 15 d, pelargonic acid 5440 g/ha) of 98% and a herbicidal effect (Erigeron sumatrensis; 15 d, pelargonic acid 6800 g/ha) of 98%. For the same molecule, the herbicidal effect (Erigeron sumatrensis; 15 d, pelargonic acid 8160 g/ha) was 98%, the herbicidal effect (Digitaria sanguinalis; 7 d, pelargonic acid 5440 g/ha) was 51% and the herbicidal effect (Digitaria sanguinalis; 7 d, pelargonic acid 6800 g/ha) was 51%. The herbicidal effect (Digitaria sanguinalis; 7 d, pelargonic acid 8160 g/ha) was 51%, the herbicidal effect (Digitaria sanguinalis; [2]) was 51% and the herbicidal effect (Digitaria sanguinalis; [3]) was 80%. It also gave a herbicidal effect (Digitaria sanguinalis; [4]) of 80%, a herbicidal effect (Digitaria sanguinalis; [5]) of 80% and a herbicidal effect (Digitaria sanguinalis; [6]) of 80%. The herbicidal effect (Digitaria sanguinalis; [7]) was 73%, the herbicidal effect (Digitaria sanguinalis; [8]) was 73% and the herbicidal effect (Digitaria sanguinalis; [9]) was 73%. The herbicidal effect (Digitaria sanguinalis; [10]) was 73%, the herbicidal effect (Digitaria sanguinalis; [11]) was 64% and the herbicidal effect (Digitaria sanguinalis; [13]) was 64%. It also gave a herbicidal effect (Digitaria sanguinalis; [14]) of 64%, a herbicidal effect (Digitaria sanguinalis; [12]) of 64% and a herbicidal effect (Epilobium tetragonum; 7 d, pelargonic acid 5440 g/ha) of 61%. The herbicidal effect (Epilobium tetragonum; 7 d, pelargonic acid 8160 g/ha) was 61%, the herbicidal effect (Epilobium tetragonum; [2]) was 61% and the herbicidal effect (Epilobium tetragonum; [4]) was 96%. For the same molecule, the herbicidal effect (Epilobium tetragonum; [5]) was 96%, the herbicidal effect (Epilobium tetragonum; [6]) was 96% and the herbicidal effect (Epilobium tetragonum; [8]) was 96%. The herbicidal effect (Epilobium tetragonum; [9]) was 96%, the herbicidal effect (Epilobium tetragonum; [10]) was 96% and the herbicidal effect (Epilobium tetragonum; [13]) was 96%. The herbicidal effect (Epilobium tetragonum; [14]) was 96%, the herbicidal effect (Epilobium tetragonum; [12]) was 96% and the herbicidal effect (Amaranthus retroflexus; 7 d, pelargonic acid 5440 g/ha) was 23%. The herbicidal effect (Amaranthus retroflexus; [2]) was 23%, the herbicidal effect (Amaranthus retroflexus; [3]) was 23% and the herbicidal effect (Amaranthus retroflexus; [6]) was 23%. For the same molecule, the herbicidal effect (Amaranthus retroflexus; [15]) was 53%, the herbicidal effect (Amaranthus retroflexus; [16]) was 53% and the herbicidal effect (Amaranthus retroflexus; [17]) was 53%. It also gave a herbicidal effect (Amaranthus retroflexus; [18]) of 53%, a herbicidal effect (Amaranthus retroflexus; [19]) of 78% and a herbicidal effect (Amaranthus retroflexus; 58 d, pelargonic acid 6800 g/ha) of 78%. It also gave a herbicidal effect (Amaranthus retroflexus; [20]) of 78%, a herbicidal effect (Amaranthus retroflexus; [21]) of 78% and a herbicidal effect (Geranium molle; pelargonic acid 5440 g/ha) of 63%. The herbicidal effect (Geranium molle; pelargonic acid 6800 g/ha) was 63%, the herbicidal effect (Geranium molle; pelargonic acid 8160 g/ha) was 63% and the herbicidal effect (Geranium molle; pelargonic acid 10880 g/ha) was 63%. For the same molecule, the herbicidal effect ([1]; 7 d, pelargonic acid 5440 g/ha) was 13%, the herbicidal effect ([1]; 7 d, pelargonic acid 6800 g/ha) was 13% and the herbicidal effect ([1]; 7 d, pelargonic acid 8160 g/ha) was 13%. For the same molecule, the herbicidal effect [1, 2] was 13%, the herbicidal effect [1, 3] was 91% and the herbicidal effect [1, 5] was 91%. For the same molecule, the herbicidal effect [1, 6] was 91%, the herbicidal effect ([1]; 28 d, pelargonic acid 5440 g/ha) was 90% and the herbicidal effect [1, 22] was 90%. The herbicidal effect [1, 23] was 90%, the herbicidal effect [1, 24] was 90% and the herbicidal effect [1, 25] was 98%. For the same molecule, the herbicidal effect [1, 26] was 98%, the herbicidal effect [1, 27] was 98% and the herbicidal effect (Convolvulus arvensis; 7 d, pelargonic acid 5440 g/ha) was 73%. It also gave a herbicidal effect (Convolvulus arvensis; 7 d, pelargonic acid 6800 g/ha) of 73%, a herbicidal effect (Convolvulus arvensis; 7 d, pelargonic acid 8160 g/ha) of 73% and a herbicidal effect (Convolvulus arvensis; [3]) of 88%. For the same molecule, the herbicidal effect (Convolvulus arvensis; [4]) was 88%, the herbicidal effect (Convolvulus arvensis; [5]) was 88% and the herbicidal effect (Convolvulus arvensis; [6]) was 88%. For the same molecule, the herbicidal effect (Convolvulus arvensis; [22]) was 74%, the herbicidal effect (Convolvulus arvensis; [23]) was 74% and the herbicidal effect (Convolvulus arvensis; [24]) was 74%. For the same molecule, the herbicidal effect (Convolvulus arvensis; [25]) was 0%, the herbicidal effect (Convolvulus arvensis; 65 d, pelargonic acid 6800 g/ha) was 0% and the herbicidal effect (Convolvulus arvensis; [26]) was 0%. It also gave a herbicidal effect (Convolvulus arvensis; [27]) of 0%, a herbicidal effect (Senecio vulgaris; 7 d, pelargonic acid 5440 g/ha) of 20% and a herbicidal effect (Senecio vulgaris; 7 d, pelargonic acid 6800 g/ha) of 20%. For the same molecule, the herbicidal effect (Senecio vulgaris; [3]) was 20%, the herbicidal effect (Senecio vulgaris; [4]) was 20% and the herbicidal effect (Senecio vulgaris; [5]) was 20%. For the same molecule, the herbicidal effect (Senecio vulgaris; [15]) was 50%, the herbicidal effect (Senecio vulgaris; [16]) was 50% and the herbicidal effect (Senecio vulgaris; [17]) was 50%. It also gave a herbicidal effect (Senecio vulgaris; [18]) of 50%, a herbicidal effect (Senecio vulgaris; [19]) of 97% and a herbicidal effect (Senecio vulgaris; [20]) of 97%. It also gave a herbicidal effect (Senecio vulgaris; [21]) of 97%, a herbicidal effect (Oxalis latifolia; 7 d, pelargonic acid 6800 g/ha) of 29% and a herbicidal effect (Oxalis latifolia; 7 d, pelargonic acid 8160 g/ha) of 29%. It also gave a herbicidal effect (Oxalis latifolia; [2]) of 29%, a herbicidal effect (Oxalis latifolia; [3]) of 49% and a herbicidal effect (Oxalis latifolia; [4]) of 49%. It also gave a herbicidal effect (Oxalis latifolia; [5]) of 49%, a herbicidal effect (Oxalis latifolia; [6]) of 49% and a herbicidal effect (Oxalis latifolia; [22]) of 44%. The herbicidal effect (Sonchus oleracea; [3]) was 75%, the herbicidal effect (Sonchus oleracea; [4]) was 75% and the herbicidal effect (Sonchus oleracea; [5]) was 75%. The herbicidal effect (Sonchus oleracea; [6]) was 75%, the herbicidal effect (Sonchus oleracea; [7]) was 74% and the herbicidal effect (Sonchus oleracea; [8]) was 74%. It also gave a herbicidal effect (Sonchus oleracea; [9]) of 74%, a herbicidal effect (Sonchus oleracea; [10]) of 74% and a herbicidal effect (Sonchus oleracea; [11]) of 70%. It also gave a herbicidal effect (Sonchus oleracea; [13]) of 70%, a herbicidal effect (Sonchus oleracea; [14]) of 70% and a herbicidal effect (Sonchus oleracea; [12]) of 70%.
